Experimental data reported in patent US8889881B2, “Compound having skin-whitening, anti-oxidizing and PPAR activities and medical use therefor” (Pusan National University Industry —University Cooperation …, priority 2011, dated 2014).

How the values were obtained:
PPAR gamma-LBD = biological target: T1, PPAR gamma-LBD (Homo sapiens, UniProt P37231); experiment: PPAR assay, PPARγ; format: binding; conditions: sample final concentration 100 μM; positive control rosiglitazone; FIGS. 7 and 8
T1 sequence (P37231 238-503 limits assumed): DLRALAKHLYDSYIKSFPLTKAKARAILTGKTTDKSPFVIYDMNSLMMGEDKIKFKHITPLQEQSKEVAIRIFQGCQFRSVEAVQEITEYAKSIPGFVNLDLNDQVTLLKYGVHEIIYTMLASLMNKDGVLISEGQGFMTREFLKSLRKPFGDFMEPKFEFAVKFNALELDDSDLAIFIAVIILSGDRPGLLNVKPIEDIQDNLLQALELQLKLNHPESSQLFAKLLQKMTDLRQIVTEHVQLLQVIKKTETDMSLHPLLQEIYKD

PPAR alpha-LBD = biological target: T2, PPAR alpha-LBD (Homo sapiens, UniProt Q07869); experiment: PPAR assay, PPARα; conditions: for PPARα activation (competitive activation rate), compared with fenofibrate: sample final concentration 100 μM, positive control fenofibrate, FIGS. 5 and 6; for simultaneous activation of PPARα and PPARγ: summary of the PPARα and PPARγ assays, sample 100 μM
T2 sequence (Q07869 239-466 limits assumed): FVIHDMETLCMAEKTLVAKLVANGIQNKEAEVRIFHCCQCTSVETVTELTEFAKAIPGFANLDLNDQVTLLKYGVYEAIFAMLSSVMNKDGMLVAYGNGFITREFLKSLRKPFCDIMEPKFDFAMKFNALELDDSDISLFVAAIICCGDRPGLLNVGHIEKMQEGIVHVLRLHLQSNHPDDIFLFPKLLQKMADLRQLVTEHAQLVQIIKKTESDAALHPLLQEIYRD

Structure (SMILES) | PPARγ activation (competitive activation rate), compared with rosiglitazone (PPAR gamma-LBD) | PPARα activation (competitive activation rate), compared with fenofibrate (PPAR alpha-LBD) | simultaneous activation of PPARα and PPARγ (PPAR alpha-LBD) | melting point
O=C(O)c1ccc2[nH]c(-c3ccccc3O)nc2c1 [Compound 66, 2-(2-hydroxyphenyl)-1H-benzo[d]imidazole-5-carboxylic acid] | very excellent PPARγ activation agent compared to rosiglitazone | very excellent PPARα activation agent compared to fenofibrate | simultaneously activates PPARα and PPARγ | 
COc1ccc(-c2nc3cc(C(=O)O)ccc3[nH]2)cc1OC [Compound 64, 2-(3,4-dimethoxyphenyl)-1H-benzo[d]imidazole-5-carboxylic acid] | very excellent PPARγ activation agent compared to rosiglitazone | very excellent PPARα activation agent compared to fenofibrate | simultaneously activates PPARα and PPARγ | 
Oc1ccc(-c2nc3ccccc3[nH]2)cc1Br [Compound 56, 4-(1H-benzo[d]imidazol-2-yl)-2-bromophenol] | very excellent PPARγ activation agent compared to rosiglitazone |  |  | 
COc1ccc(-c2nc3ccccc3[nH]2)c(OC)c1 [Compound 52, 2-(2,4-dimethoxyphenyl)-1H-benzo[d]imidazole] | very excellent PPARγ activation agent compared to rosiglitazone | very excellent PPARα activation agent compared to fenofibrate | simultaneously activates PPARα and PPARγ | 
Oc1ccccc1-c1nc2ccccc2[nH]1 [Compound 53, 2-(1H-benzo[d]imidazol-2-yl)phenol] | very excellent PPARγ activation agent compared to rosiglitazone | very excellent PPARα activation agent compared to fenofibrate | simultaneously activates PPARα and PPARγ | 
COc1cc(-c2nc3ccccc3s2)ccc1O [Compound 16, 4-(benzo[d]thiazol-2-yl)-2-methoxyphenol] | very excellent PPARγ activation agent compared to rosiglitazone | very excellent PPARα activation agent compared to fenofibrate | simultaneously activates PPARα and PPARγ | 
COc1ccc(-c2nc3cc(C(=O)O)ccc3[nH]2)c(OC)c1 [Compound 65, 2-(2,4-dimethoxyphenyl)-1H-benzo[d]imidazole-5-carboxylic acid] | very excellent PPARγ activation agent compared to rosiglitazone | very excellent PPARα activation agent compared to fenofibrate | simultaneously activates PPARα and PPARγ | 
CC(C)(Oc1ccc(-c2nc3ccccc3s2)cc1)C(=O)O [Compound 97, 2-(4-(benzo[d]thiazol-2-yl)phenoxy)-2-methylpropanoic acid] | very excellent PPARγ activation agent compared to rosiglitazone | very excellent PPARα activation agent compared to fenofibrate | simultaneously activates PPARα and PPARγ | 
COc1cc(-c2nc3cc(C(=O)O)ccc3[nH]2)cc(OC)c1OC [Compound 67, 2-(3,4,5-trimethoxyphenyl)-1H-benzo[d]imidazole-5-carboxylic acid] | very excellent PPARγ activation agent compared to rosiglitazone | very excellent PPARα activation agent compared to fenofibrate | simultaneously activates PPARα and PPARγ | 
O=C(O)c1ccc2[nH]c(-c3ccc(OCc4ccccc4)cc3)nc2c1 [Compound 113, 2-(4-(benzyloxy)phenyl)-1H-benzo[d]imidazole-5-carboxylic acid] | very excellent PPARγ activation agent compared to rosiglitazone | very excellent PPARα activation agent compared to fenofibrate | simultaneously activates PPARα and PPARγ | 
O=C(O)c1ccc2[nH]c(-c3ccc(O)c(Br)c3)nc2c1 [Compound 69, 2-(3-bromo-4-hydroxyphenyl)-1H-benzo[d]imidazole-5-carboxylic acid] | very excellent PPARγ activation agent compared to rosiglitazone | very excellent PPARα activation agent compared to fenofibrate | simultaneously activates PPARα and PPARγ | 
CCOc1cc(-c2nc3ccccc3[nH]2)ccc1O [Compound 47, 4-(1H-benzo[d]imidazol-2-yl)-2-ethoxyphenol] | very excellent PPARγ activation agent compared to rosiglitazone | very excellent PPARα activation agent compared to fenofibrate | simultaneously activates PPARα and PPARγ | 
c1ccc(COc2cccc(-c3nc4ccccc4s3)c2)cc1 [Compound 110, 2-(3-(benzyloxy)phenyl)benzo[d]thiazole] |  |  |  | 121.5 to 122.1 °C
CCOc1cc(-c2nc3cc(C(=O)O)ccc3[nH]2)ccc1O [Compound 61, 2-(3-ethoxy-4-hydroxyphenyl)-1H-benzo[d]imidazole-5-carboxylic acid] |  |  |  | > 300 °C
COc1ccc(-c2nc3cc(Cl)ccc3s2)c(OC)c1 [Compound 91, 5-chloro-2-(2,4-dimethoxyphenyl)benzo[d]thiazole] |  |  |  | 138.6 to 140.3 °C
Oc1ccccc1-c1nc2cc(C(F)(F)F)ccc2s1 [Compound 38, 2-(5-(trifluoromethyl)benzo[d]thiazol-2-yl)phenol] |  |  |  | 175 to 176.5 °C
c1ccc(COc2ccc(-c3nc4ccccc4s3)cc2)cc1 [Compound 107, 2-(4-(benzyloxy)phenyl)benzo[d]thiazole] |  |  |  | 166.1 to 167.2 °C
Oc1cc(O)cc(-c2nc3ccccc3s2)c1 [Compound 21, 5-(benzo[d]thiazol-2-yl)benzene-1,3-diol] |  |  |  | 274.5 to 276.5 °C
COc1cc(-c2nc3ccccc3[nH]2)cc(OC)c1OC [Compound 54, 2-(3,4,5-trimethoxyphenyl)-1H-benzo[d]imidazole] |  |  |  | 257 to 257.7 °C
CCOc1cc(-c2nc3ccccc3s2)ccc1O [Compound 17, 4-(benzo[d]thiazol-2-yl)-2-ethoxyphenol] | very excellent PPARγ activation agent compared to rosiglitazone | very excellent PPARα activation agent compared to fenofibrate | simultaneously activates PPARα and PPARγ | 
COc1cc(-c2nc3cc(C(=O)O)ccc3[nH]2)cc(OC)c1O [Compound 68, 2-(4-hydroxy-3,5-dimethoxyphenyl)-1H-benzo[d]imidazole-5-carboxylic acid] |  |  |  | 280 to 281.4 °C
COc1cc(-c2nc3cc(C(F)(F)F)ccc3s2)cc(OC)c1OC [Compound 39, 5-(trifluoromethyl)-2-(3,4,5-trimethoxyphenyl)benzo[d]thiazole] |  |  |  | 132.5 to 134 °C
COc1cc(C2N[C@H](C(=O)O)CS2)cc(OC)c1OC (mixture of isomers) [Compound 11, (2R/S,4R)-2-(3,4,5-trimethoxyphenyl)thiazolidine-4-carboxylic acid] |  |  |  | 197 to 199.7 °C
CCOc1cc(C2N[C@H](C(=O)O)CS2)ccc1O (mixture of isomers) [Compound 5, (2R/S,4R)-2-(3-ethoxy-4-hydroxyphenyl)thiazolidine-4-carboxylic acid] |  |  |  | 174.3 to 175.9 °C
O=C(O)c1ccc2[nH]c(-c3ccc(O)cc3)nc2c1 [Compound 57, 2-(4-hydroxyphenyl)-1H-benzo[d]imidazole-5-carboxylic acid] |  |  |  | > 300 °C
Oc1ccc(-c2nc3ccccc3[nH]2)cc1 [Compound 43, 4-(1H-benzo[d]imidazol-2-yl)phenol] | very excellent PPARγ activation agent compared to rosiglitazone | very excellent PPARα activation agent compared to fenofibrate | simultaneously activates PPARα and PPARγ | 
O=C(O)c1ccc2[nH]c(-c3cc(Br)c(O)c(Br)c3)nc2c1 [Compound 70, 2-(3,5-dibromo-4-hydroxyphenyl)-1H-benzo[d]imidazole-5-carboxylic acid] | very excellent PPARγ activation agent compared to rosiglitazone | very excellent PPARα activation agent compared to fenofibrate | simultaneously activates PPARα and PPARγ | 
Oc1cc(O)cc(-c2nc3cc(C(F)(F)F)ccc3s2)c1 [Compound 36, 5-(5-(trifluoromethyl)benzo[d]thiazol-2-yl)benzene-1,3-diol] |  |  |  | 256.7 to 260.6 °C
